Literature values as cited in PMC3461336 (Biomacromolecules, 2012).

Conditions: without dpA3

PAX solubility in aqueous solvents: < 0.1 µg/mL
Structure (SMILES): CC(=O)O[C@H]1C(=O)[C@@]2(C)[C@H]([C@H](OC(=O)c3ccccc3)[C@]3(O)C[C@H](OC(=O)[C@H](O)[C@@H](NC(=O)c4ccccc4)c4ccccc4)C(C)=C1C3(C)C)[C@]1(OC(C)=O)CO[C@@H]1C[C@@H]2O [PAX, Paclitaxel]
